Experimental data from the NIST ThermoML archive (doi:10.1021/acs.jced.8b01247).
Numbers after ± are expanded uncertainties.

How the values were obtained:
[1] = Boiling temperature at pressure P; settings: Liquid, Ebulliometric method (Recirculating still)
[2] = 337.83 K; Liquid; Ebulliometric method (Recirculating still)

SMILES | Boiling temperature at pressure P ([1]; 101.3 kPa) [°C] | Boiling temperature at pressure P ([1]; 166.8 kPa) [°C] | Boiling temperature at pressure P ([1]; 217.3 kPa) [°C] | Boiling temperature at pressure P ([1]; 257 kPa) [°C] | Boiling temperature at pressure P ([1]; 313.1 kPa) [°C] | Boiling temperature at pressure P ([1]; 387.5 kPa) [°C] | vapor or sublimation pressure [2] [kPa]
CCC(C)OCOC (configuration not stated) [2-(methoxymethoxy)butane] | 109.7 ± 0.87 | 129.1 ± 1.3 | 139.94 ± 1.2 | 146.93 ± 1.2 | 155.67 ± 1.3 | 165.49 ± 1.5 | –
CO [methanol] | – | – | – | – | – | – | 101.3 ± 2.3
